Results as given in patent publication US10968462B2, “Plants having increased tolerance to herbicides” (BASF AGRO B.V., priority 2013, dated 2021).

Key:
Assay type in all cases: biochemical, Amaranthus tuberculatum
[1] = biological target: wild type and amino acid substituted PPO enzyme (PPO2) of SEQ ID NO: 2 (AMARE) (Amaranthus tuberculatus, UniProt Q0NZW9, F204I/F457M, form not given)
[2] = biological target: wild type and amino acid substituted PPO enzyme (PPO2) of SEQ ID NO: 2 (AMARE)
[3] = biological target: wild type and amino acid substituted PPO enzyme (PPO2) of SEQ ID NO: 2 (AMARE) (Amaranthus tuberculatus, UniProt Q0NZW9, R128A/L397D, form not given)
[4] = biological target: wild type and amino acid substituted PPO enzyme (PPO2) of SEQ ID NO: 2 (AMARE) (Amaranthus tuberculatus, UniProt Q0NZW9, F204I/T208S, form not given)
[5] = biological target: wild type and amino acid substituted PPO enzyme (PPO2) of SEQ ID NO: 2 (AMARE) (Amaranthus tuberculatus, UniProt Q0NZW9, R128L, form not given)

| Structure (SMILES) | IC50 [1] [nM] | IC50 [2] [nM] | IC50 [3] [nM] | IC50 [4] [nM] | IC50 [5] [nM] |
| --- | --- | --- | --- | --- | --- |
| C#CCN1C(=O)C(F)(F)Oc2cc(F)c(-n3c(=O)n(C)c(=S)n(C)c3=O)cc21 [1,5-dimethyl-6-thioxo-3-(2,2,7-trifluoro-3-oxo-4-(prop-2-yny] [reference compound] | 0.0752 | 246 | 5.9 | 0.129 |  |
| CC(C)N(C)S(=O)(=O)NC(=O)c1cc(-n2c(=O)cc(C(F)(F)F)n(C)c2=O)c(F)cc1Cl [Saflufenacil, saflufenacil] | 0.0189 |  |  | 0.0589 | 222 |
